In patent US10335400B2, “Treatment of tauopathies with mGluR5 antagonists” (priority 2014, dated 2019):

What was measured:
[1] = test system: mixed cortical cultures; details: injury induced by amyloid-β, 1-methyl-4-phenylpyridinium or methylmercury; cited from earlier work
[2] = test system: tau; assay: Tau phosphorylation (Western blots, immunofluorescence) in mouse hippocampal primary neurons; format: cell-based
Method: Mouse hippocampal neuronal cultures were prepared from d 18 embryos as previously described (1). Briefly, C57BL/6 pregnant female mice from Charles River Laboratories were killed by cervical dislocation. All studies were performed in accordance with the recommendations in the Guide for the Care and Use of Laboratory Animals of the National Institutes of Health (2). The protocol was approved by Institutional Animal Care and Use Committee of the New York Institute for Basic Research in Developmental Disabilities. All surgeries were performed under anesthesia, and all efforts were made to minimize suffering. Embryos were removed and placed in cold Hibernate A (BrainBits, LLC), and all the following steps were performed in ice-cold Hibernate A, under a stereoscopic (dissection) microscope placed in a laminar flow hood. Fetal brains were removed carefully, and forebrains were separated. The hippocampus, including the cortex surrounding the area of the hippocampus, was dissected and cut into small pieces using microsurgical scissors. The cut tissue was transferred with number 5 forceps to 15-mL tubes containing 0.1% trypsin in Versene (Invitrogen Life Technologies) and was incubated for 15 min at 37° C. followed by inactivation with 10% (vol/vol) FBS in Neurobasal complete medium (Neurobasal Medium supplemented with 2×B-27, 0.30% glutamine, 10% FBS, and penicillin/streptomycin, 0.1 mg/mL and 0.1 U/mL respectively). After 3 d, the cells were grown with Neurobasal medium supplemented with only 2×B-27. This procedure typically yields cultures that contain 70-75% neurons and […] supporting cells (3). The cultures were maintained at 37° C. in a humidified atmosphere containing 5% CO2 for 8 or 9 d before experimentation. Every 72 h, the medium was replaced with fresh medium. All medium components were purchased from Invitrogen. The neuronal transfection was performed using Lipofectamine LTX and Plus reagent at 5 d in vitro according to the manufacturer's instructions (Invitrogen). The cells were processed for immunofluorescent staining 3 d after transfection.
(§1) Protein was fractionated by 10% SDS/PAGE, transferred to PVDF membrane, and then blocked with 5% skim milk for 1 h at room temperature. The membrane was probed with anti-IPP2A (5G6, 1:1, 500) (7), anti-I2P2A (10E7, 1:1, 600) (7), anti-tau ˜92e; 1:5,000) (8), anti-tau (R134d; 1:5 000) (9), anti-tau pSer^262/^356 (12E8; 1:500) (10, anti-tau pSer^199, anti-tau pThr^205, anti-tau pThr^212, and pSer^396 (1:1,000) (Biosource), anti-GAPDH (1:2,000) (Santa Cruz Biotechnology), anti-PP2Ac (1:10 000) (BD Transduction Lab), anti pY^307-PP2A and anti-DML^309-PP2A (1:1,000) (Millipore), anti-GSK-3(α/β), anti-pS^9-GSK-3 β, anti-ERK1/2, anti-pT^202/Y^204-ERK1/2, anti-MEK1/2, anti-p9^17/221-MEK1/2, anti-CAMKII, anti-pT^286-CAMKII, anti-p70 S6 kinase, anti-pT^389-p70 S6 kinase, anti-SAPK/JNK, and anti-pT^183/Y^185-SAPK/JNK (1:1,000) (Cell Signaling Technology). The membrane then was incubated with HRP-conjugated secondary antibody (Jackson ImmunoResearch). The protein bands were detected with the enhanced chemiluminescence reagents (Thermo Scientific). Band intensity was measured by Multi-Gauge V3 software (Fuji Photo Film).
Primary hippocampal neuronal cultures grown on four-chamber glass slides were fixed in cold 4% (wt/vol) paraformaldehyde for 15 min and permeabilized in 0.1% Triton X-100 for 15 min followed by incubation in 5% goat serum to block the nonspecific staining for 1 h. The cells then were probed with 12E8 (1:200) overnight at 4° C. Alexa-488-conjugated anti-mouse secondary antibody (1:500) (Jackson Laboratory) was used for fluorescent labeling. The cells on slides were rinsed with PBS, mounted with Fluorogel (Electron Microscopy Sciences) and examined under laser confocal microscope (Nikon Eclipse 90i). […]

[3] = test system: tau; assay: Tau phosphorylation (Western blots) in metabolically active rat brain slices; format: cell-based; details: 1 mM BMAA, 2-3 h, adult Wistar rat brain slices
Method: Male Wistar rats (Charles River Laboratories), 2-3 months old, were anesthetized by i.p. injection with 50 mg/kg Nembutal. The animals were decapitated when deeply anesthetized. The brains were removed immediately and cooled in ice-cold (4° C.) oxygenated artificial cerebrospinal fluid (aCSF) consisting of 126 mM NaCl, 3.5 mM KCl, 1.2 mM NaH2PO4, 1.3 mM MgCl2, 2 mM CaCl2, 11 mM D(+) glucose, and 25 mM NaHCO3 (pH 7.4) for 7-8 min. Each brain then was divided sagittally, and 400-μm-thick coronal slices were made with a Camden Vibraslicer (WP, Inc.). The slices were transferred into a chamber containing the oxygenated aCSF and were incubated at 33° C. for 2 h in the presence or absence of 1 mM, β-N ? methylamino-L-alanine (BMAA) dissolved in 10 mM NaHCO3 (Sigma). The oxygenation of the aCSF was carried out by bubbling the solution with a mixture of 95% O2 and 5% CO2 during the entire procedure. At the end of incubation, the brain slices were homogenized with homogenizing buffer [50 mM Tris·HCl (pH 7.4), 8.5% (wt/vol) sucrose, 2 mM EDTA, 2 mM EGTA, 10 mM (3-mercaptoethanol, 5 mM benzamidine, 0.5 mM 4-(2-Aminoethyl) benzenesulfonyl fluoride hydrochloride (AEBSF), 4 μg/mL pepstatin A, and 10 μg/mL each of aprotinin and leupepin] at a ratio of 9.0 mL buffer/1.0 g tissue slices. The homogenates were divided into two parts. One part was centrifuged at 16,000×g for 10 min, and the resulting supernatant was used to assay protein phosphatase 2A (PP2A) activity. Into the other half, an equal volume of phosphatase-inhibitor mixture (20 mM 3-glycerophosphate, 2 mM Na3VO4, and 100 mM NaF) was added immediately, and the samples were used for Western blots.
as §1

[4] = BMAA 1 mM vs controls, Western blots, P<0.01
[5] = BMAA 1 mM vs controls, Western blots, P<0.05

CNC[C@H](N)C(=O)O [BMAA, β-N-methylamino-L-alanine]
BMAA concentration potentiating neuronal injury [1]: 10 µM | hyperphosphorylation of tau at Ser396 ([2]; BMAA 1 mM vs controls, Western blots): not at Ser^396 | hyperphosphorylation of tau at Ser262/356 (12E8 site) [2, 4]: significantly increased | hyperphosphorylation of tau at Thr205 [2, 4]: significantly increased | hyperphosphorylation of tau at Ser199 [2, 5]: significantly increased | hyperphosphorylation of tau at Thr212 [2, 5]: significantly increased | expression of tau phosphorylated at Ser262/356 ([2]; immunohistofluorescent analysis, 12E8 staining, BMAA-treated primary neurons): increased | increase in phosphorylation of tau at Ser199 [3]: 2.6 fold | increase in phosphorylation of tau at Ser262/356 [3]: 3.4 fold | increase in phosphorylation of tau at Thr205 [3]: 1.8 fold | increase in phosphorylation of tau at Thr212 [3]: 3.7 fold | phosphorylation of tau at Ser396 [3]: not any significant change
